Laboratory results as given in US12370178B2, “Tinostamustine for use in the treatment of t-cell prolymphocytic leukaemia” (Purdue Pharma L.P., priority 2017, dated 2025).

Columns and labels:
[1] = tested on: leukaemia/lymphoma cells derived from ΔJAK1 mice; assay: ΔJAK1 mature T-cell lymphoma transfer model in mice; assay type: in vivo; conditions: for mean survival: 18 mg/kg i.v. on Day 7, 10, 13, 17, 22
Description: Transplantable leukaemia/lymphoma cells derived from ΔJAK1 mice (Heinrich et al, Mol. Ther. 2013, 21, 1160-8; nodal/spleen mature T-cell lymphoma based on insertional mutagenesis activating JAK1) were intravenously injected into background-matched mice (to facilitate the generation of uniform cohorts). 2.5×10^6 cells were transplanted intravenously into Rag1-deficient mice. […] Each treatment group was then treated with 18 mg/kg of either bendamustine, fludarabine, EDO-S101, or with vehicle control on days 7, 10, 13, 17, 22 (DMSO).
Mice were injected with leukaemia/lymphoma cells derived from ΔJAK1 mice, as previously described (FIG. 5). ΔJAK1 is a model for mature T-cell lymphoma. Mice were divided into four groups at random post-transplantation. Each group was intravenously administered either fludarabine (18 mg/kg), bendamustine (18 mg/kg) or EDO-S101 (18 mg/kg) at the indicated doses on Day 7, Day 10, Day 13, Day 17 and Day 22. The percentage survival of each cohort was plotted as a function of time (FIG. 5).

[2] = tested on: T-PLL/NKtert co-cultured cells; assay: T-PLL/NKtert co-culture apoptosis, Annexin-V/7-AAD flow cytometry; assay type: cell-based, human; conditions: 48 hours; for overcoming NKtert associated protection of co-cultured T-PLL cells: 0.1, 1 or 10 μM
Description: For co-culture experiments human bone marrow stromal cells (BMSC) NKtert cells (RIKEN BRC, Japan) were seeded at concentrations of 1.5×10^4 cells/well (96 well plate) and incubated at 37° C. in 5% CO2. After 24 hours, NKtert cells at approximately 60-80% confluency were treated with 0.02 mg/mL Mitomycin C for 3 hours in […], and then washed twice with PBS (Life Technologies). After another 24 hours, 4×10^5 T-PLL cells were added per well (with and without feeder cell support) and treated for 48 hours with the indicated compounds.
Referring to FIG. 3b, the control sample Ø on the left hand graph is normalised to 1 for normal T-PLL cells.

HH cells = assay: HH cell viability, Annexin-V/7-AAD flow cytometry; assay type: cell-based, human; conditions: 48 hours treatment
Description: The alkylating agent bendamustine (MundiPharma) was dissolved in methanol.
Human primary T-PLL cells are unsuitable for cultivation under standard laboratory cell culture conditions, in part, due to their high levels of genomic heterogeneity and variable phenotypes. HH cells are derived from a highly chemotherapy resistant cutaneous lymphoma, and are suitable for cultivation under laboratory conditions. […] HH cells were therefore selected for the in vitro validation of EDO-S101.
To evaluate the cytotoxicity of EDO-S101 in comparison to bendamustine and vorinostat (SAHA), HH cells were treated with either EDO-S101, bendamustine, vorinostat or an equimolar bendamustine/vorinostat combination over a period 48 hours. Cells were treated with either 0.1 μM, 1 μM, 2.5 μM, 5 μM or 10 μM solutions of the indicated compounds (FIG. 1a).
Annexin-V specifically targets and identifies apoptotic cells. 7-AAD is a marker of late stage apoptotic, or necrotic cells. The number of Annexin-V and 7-AAD negative cells was counted for each sample.

NKtert cells = assay: NKtert bone marrow stromal cell viability, MTT assay; conditions: 0.1, 1, 5 or 10 μM, 48 hours
Description: Cells were cultured in a HERAcell incubator (Thermo Scientific Heraeus) at 37° C. and 5% CO2 with 90% humidity. CD4+ mature T-cell leukemia HH cells were originally isolated from a patient with Sézary Syndrome (Starkebaum et al., 1991). NKtert (human bone marrow stromal cells [BMSC]) were purchased from RIKEN Cell Bank in 2011. Only cells derived from the original cell stock as purchased, and which had been propagated for 2 to 3 passages before long-term storage in liquid nitrogen, were used. Cell cultures were terminated after the 10th passage (4 to 6 weeks of being in culture). Cells were authenticated following thawing by evaluation of characteristic growth behaviour and by flow cytometry. Cells were routinely tested for the presence of mycoplasma, using standard PCR protocols (primers: for1: 5′-acaccatgggagytggtaat-3′, (SEQ ID No; 1) rev1: 5′-cttcwtcgattycagacccaaggcat-3 (SEQ ID NO: 2)′, for2: 5′-gtgsggmtggatcacctcct-3 (SEQ ID NO: 3)′, rev2: 5′-gcatccaccawawacyctt-3′ (SEQ ID NO: 4)).
Consequently, the effect on cell viability of NKtert bone marrow stromal cells (BMSC) feeders cells alone was also investigated. Cells were treated with either bendamustine, vorinostat, an equimolar combination of bendamustine and vorinostat, or EDO-S101, at either 0.1, 1, 5 or 10 μM concentrations, incubated for 48 hours, and cell viability assessed using MTT assays (FIG. 3d).

CD2-MTCP1 cells = assay: CD2-MTCP1p13 leukaemia transfer model in mice; assay type: in vivo; conditions: for increase in leukemic blood leukocyte (WBC) count: Day 14 vs Day 9 post-transplantation, compared to control and fludarabine; for average post-mortem spleen weight: day 22 post-transplantation, compared to fludarabine or control
Description: DBA2×C57B6JF1 mice were used as recipients in all experiments. Transplantable leukaemia/lymphoma cells derived from CD2-MTCP1p13 tg mice (Gritti et al, Blood 1998, 92, 268-73; blood, spleen, and bone marrow) were intraperitoneally injected into background-matched mice (to facilitate the generation of uniform cohorts). 1×10^7 cells from CD2-MTCP1p13 mice were intraperitoneally injected into syngeneic recipients (n=26). Starting on day 10 post-transplantation, mice with a homogeneous distribution of leukemic blood leukocytes (WBC) were selected and randomly assigned into four treatment groups. Each group was then treated with either vehicle control (DMSO), fludarabine (34 mg/kg days 10, 15, 17, 21), bendamustine (day 10 at 60 mg/kg, days 15, 17, 21 at 20 mg/kg), and EDO-S101 (day 10 at 50 mg/kg, days 15, 17, 21 at 20 mg/kg) on the indicated days at the indicated doses.
Mice were injected with leukaemia cells derived from CD2-MTCP1 mice, as previously described (FIG. 4a).
CD2-MTCP1 cells are an aggressive, transplantable subline and are suitable for in vivo analysis as a T-PLL like model. […] Each group was intravenously administered either fludarabine (34 mg/kg), bendamustine (Day 10, 60 mg/kg; Day 15-21, 20 mg/kg) or EDO-S101 (Day 10, 50 mg/kg; Day 15-21, 20 mg/kg) at the indicated doses on Day 10, Day 15, Day 17, […] Day 21 post-transplantation. Samples of blood were taken at regular intervals (Day 9 and Day 14 post-transplantation), and the mice sacrificed at 22 days post-transplantation (FIG. 4a).
The blood samples taken were analysed for leukemic blood leukocyte levels (WBC), and the average cell count in each group determined.
Following sacrifice of the mice on day 22 post-transplantation, the post-mortem spleen weights of each mouse were determined (FIG. 4c). The reduced average spleen weight in mouse cohorts treated with bendamustine or EDO-S101, compared to cohorts treated with fludarabine or a control, corroborate the findings previously discussed in FIG. 4b. Tumour manifestation was therefore shown to be less advanced in cohorts treated with EDO-S101 or single-agent bendamustine, compared to fludarabine treated or control cohorts.

[3] = tested on: primary human T-PLL cells; assay: cells; conditions: 48 h, read-out: LC50
Description: (§2) RPMI-1640 medium (Sigma-Aldrich) supplemented with 1% L-Glutamine (200 mM; Sigma-Aldrich), 10% fetal bovine serum (FBS) (Sigma-Aldrich) and Penicillin/Streptomycin (100 U/0.1M; PAA) was used for in-vitro experimentation on suspension cultures of primary T-PLL cells, healthy CD3+ T cells, HH cells, and in co-culture experiments with NKtert cells. Cell suspensions were maintained at a density of 1.0×10^6 cells/mL (primary T-PLL cells) and 2.5×10^5 cells/mL (HH cells) for all cell culture experiments.
(§3) EDO-S101 (EDO MundiPharma), and vorinostat (SAHA; SML0061-5 mg, Sigma-Aldrich) were dissolved in DMSO. […] Cells were treated with each compound (or compounds) at the indicated concentrations and times. Dosing was based on published ranges and IC50/LD50 titrations. Cell apoptosis was determined using dual staining for Annexin-V (AnxV) and 7AAD via flow cytometry.
(§4) To further evaluate apoptosis in cells treated with EDO-S101, primary human T-PLL cells were treated with either vorinostat, bendamustine, EDO-S101, or an equimolar combination of vorinostat and bendamustine, at 0.01 μM, 0.1 μM, 1 μM, 5 μM or 10 μM concentrations, and incubated for 48 hours. Following treatment, cell death was evaluated by staining cells with the apoptosis markers Annexin-V and 7-AAD, and the number of apoptotic cells quantified by flow cytometry. Each experiment was repeated for the indicated number of times, and the average number of apoptosis negative cells plotted and normalised relative to an untreated control sample. A dose response curve (FIG. 3a) for each treatment was subsequently plotted, and the LD50 (median lethal dose) of each treatment determined.
(§5) To evaluate the protections conferred by NKtert cells to primary human T-PLL cells, NKtert cells and T-PLL cells were co-cultured for treatment with EDO-S101. Primary T-PLL cells with (FIG. 3b) and without (FIG. 3c) co-cultures of NKtert cells were treated with increasing concentrations (0.1, 1, or 10 μM) of vorinostat, bendamustine, an equimolar combination of vorinostat and bendamustine, or EDO-S101, and incubated for 48 hours.
(§6) Following treatment, cell death was evaluated by staining cells with the apoptosis markers Annexin-V and 7-AAD, and the number of apoptotic cells quantified by flow cytometry. Each experiment was repeated for the indicated number of times, and the average number of apoptosis negative cells plotted as a ratio relative to an untreated control sample (FIG. 3b, FIG. 3c).

T-PLL cells = assay: Western blot analysis of patient T-PLL samples; assay type: cell-based, human; conditions: 1 μM, 36 hours
Description: FISH analysis used standard protocols (Vysis, Abbott).
T-PLL cells were cultured in suspension, and treated with either bendamustine (1 μM), vorinostat (1 μM), EDO-S101 (1 μM) or an equimolar combination of vorinostat/bendamustine (1 μM) for 36 hours at the indicated concentrations. After this time, the cells were harvested and lysed, the cell lysate sonicated, centrifuged to remove any cellular debris, and the supernatant collected. The protein concentration of each cell lysate solution (the supernatant) was determined and the western blot performed using standard methods.
The antibodies used were acHistone 3 (Sigma Aldrich), phospho-ATM Serine1981 (Sigma Aldrich), ATM (Sigma Aldrich), phospho-KAP-1 Serine824 (Sigma Aldrich), KAP-1 (Sigma Aldrich), phosphor-p53 Serine15 (Sigma Aldrich), acetyl-p53 (Sigma Aldrich), p53 (Sigma Aldrich), PARP (Sigma Aldrich), cleaved-PARP (Sigma Aldrich), and β-Actin (Sigma Aldrich).
After this time, the cells were harvested, lysed and protein expression levels determined by western blot analysis.
Staining for β-Actin was used as a loading control for each western blot ran (rows a to k, and rows l to o respectively).

[4] = tested on: primary human T-PLL cells
Description: as §2, §3, §4, §5, §6

healthy CD3+ T-cells = assay: Healthy CD3+ T-cell cytotoxicity; assay type: cell-based, human; conditions: selectivity T-PLL over healthy T-cells
Description: (§1) Healthy CD3+ T-cells were isolated from healthy human donors.

[5] = Healthy CD3+ T-cell cytotoxicity; assay type: cell-based, human; conditions: human, healthy CD3+ T-cells, suspension culture; read-out: LC50 (the source's name)
Description: as §1

T-PLL = conditions: cited from earlier work
[6] = vs bendamustine, vorinostat or combination

Molecule	mean survival [1]	overcoming NKtert associated protection of co-cultured T-PLL cells [2]	LD50 (median lethal dose) (HH cells)	reduction in viability of NKtert cells (NKtert cells)	increase in leukemic blood leukocyte (WBC) count (CD2-MTCP1 cells)	average post-mortem spleen weight (CD2-MTCP1 cells)	CC50 [3]	further results
Nc1nc(F)nc2c1ncn2[C@@H]1O[C@H](CO)[C@@H](O)[C@@H]1O [fludarabine, reference compound]	19 days							
Cn1c(CCCC(=O)O)nc2cc(N(CCCl)CCCl)ccc21 [bendamustine, reference compound]	18 days	not as effective as EDO-S101	8.0 µM	did not have a pronounced concentration dependent effect	significantly delayed	reduced	7.3 µM	
Cn1c(CCCCCCC(=O)NO)nc2cc(N(CCCl)CCCl)ccc21 [EDO-S101, 7-(5-(bis(2-chloroethyl)amino)-1-methyl-1H-benzo[d]imidazol-2-yl)-N-hydroxyheptanamide]	26 days	overcame the protection conferred by the NKtert cells	1.5 µM	largely comparable	significantly delayed	reduced	1 µM	approximate cell death count ([2]; co-cultured T-PLL/NKtert cells, 10 μM): greater than 95%; accumulation of acetyl-p53 (T-PLL cells; [6]): greatest accumulation; accumulation of p-p53 (T-PLL cells; [6]): greatest accumulation; cleaved PARP (cPARP) (T-PLL cells; [6]): greatest increase; levels of pATM (T-PLL cells; [6]): largest increase; levels of pKAP1 (T-PLL cells; [6]): largest increase; levels of γH2AX (T-PLL cells; [6]): largest increase; acetylation of histone3 (acHistone3) (T-PLL cells; vs vorinostat or vorinostat + bendamustine): largest increase; fold increase in potency against T-PLL cells compared to combination of vorinostat and bendamustine ([4]; LC50 1.0 μM vs 4.4 μM): ~4 fold; approximate cell death count ([4]; T-PLL cells monoculture, 10 μM, 48 hours): greater than 95%; increase in average survival time compared to bendamustine or fludarabine ([1]; 18 mg/kg i.v.): ≤ 8 days; fold more potent against T-PLL cells compared to healthy CD3+ T-cells (healthy CD3+ T-cells): approximately 4 fold; CC50 [5]: 4.4 µM
Alemtuzumab: monoclonal anti-CD52 antibody								overall response rates (T-PLL; T-PLL patients): 51-95%; median survival (T-PLL; patients achieving a complete response): 15-19 months
O=C(CCCCCCC(=O)Nc1ccccc1)NO [vorinostat]		not as effective as EDO-S101	2.7 µM				20.4 µM	
